The results in this text go back to patent US20260137697A1, “THIAZOLO[5,4-D]PYRIMIDINE COMPOUNDS, COMPOSITIONS COMPRISING THEM AND USES THEREOF” (University de Montreal, priority 2022, published 2026).

Where two headings read alike, the source gives them in different places.

Assay type in all cases: cell-based, human
One experiment relates to pERK, NCI-H358 cells. The experiment is described as follows: Phospho-ERK inhibition, AlphaLISA p-ERK 1/2, NCI-H358. Particulars: Table D-2; for IC50: NCI-H358 (KRAS-G12C); for pERK value in parentheses, % inhibition (Ymin): NCI-H358, lowest point of IC50 curve. As for the experimental part: (§1) All cancer cell lines (A375, A101D, A2058, RKO, HT29 SK-MEL 30, IPC298, HepG2, HCT-116, Lovo, SW620, SW480, NCI-H358, NCI-H2122, Calu-6, NCIH2087, NCIH1755, NCIH1666 and Mewo) were obtained from ATCC and cultured in RPM1-1640 medium (Gibco) supplemented with 5% heat inactivated fetal bovine serum (FBS, Wisent) at 37° C. under 5% CO2. Cells were maintained in T175 flasks (Greiner). They were passaged by removing the culture medium, washing once in 10 mL of room temperature Phosphate Buffered Saline (PBS; Wisent) and incubating at 37° C. with 2 mL of 0.05% Trypsin (Thermo-Fisher). Trypsin was then inactivated by adding complete growth medium and the cells were then replated in a T175 culture dish at the appropriate dilution. All cell lines were routinely tested for mycoplasma contamination. Tissue type and mutational status of each cell line can be found in Table B.
(c) Measurement of Phospho-ERK Inhibition in Cultivated Human Cancer Cell Lines by the AlphaLISA® SureFire® Ultra™ p-ERK 1/2 (Thr2O2/Tyr204)
AlphaLISA® SureFire® Ultra™ p-ERK 1/2 (Thr202/Tyr204) analysis was conducted on cells plated in 100 μL of complete RPMI-1640 growth medium in 96-well flat-bottomed transparent dishes (Costar) at a density indicated in Table C. Cells were maintained overnight at 37° C. under 5% CO2 before treatment with compounds' dilution series for one hour. The cell density in cells/cm^2 corresponds to cell number divided by the area of one well of a 96-well plate (0.143 cm^2).
In a dilution series 100 μL/well of test substance dilution prepared in complete RPMI-1640 growth media was added to the cells. The dilution series is selected so that ten concentrations cover a range from 10 μM to 0.33 nM. If necessary, the initial concentration of 10 μM is increased to 100 μM or lowered to 1 μM (as in the case of A375 and H1666 cells, which are generally more sensitive to the compounds) and further dilution is carried out accordingly. The final concentration of DMSO in the assay is set at 0.5%.
After treatment, media was removed, and cells were lysed in 50 μL of 1× AlphaScreen Ultra Lysis Buffer (Perkin Elmer). The AlphaLISA® SureFire® Ultra™ p-ERK 1/2 (Thr202/Tyr204) (PerkinElmer) reactions were performed with 5 μL of cell lysate according to the manufacturer's specifications in 384-well proxyplates (Perkin Elmer) followed by overnight incubation of the reactions at room temperature in a humidified chamber. After completion of the reactions, the signals were recorded on an EnVision plate reader (Perkin Elmer) using built in AlphaLISA® settings.
The effect of each compound dilution on the pERK signal was expressed in % inhibition and calculated as follows. An internal 100% inhibition control (1 μM trametinib, cat. No. HY-10999; MedChem Express; CAS No. 871700-17-3) was included in each plate and used as a measure of pERK background. First, the value obtained for trametinib was subtracted from each data point. The average of DMSO (vehicle) controls (set as 0% inhibition) was established and used to calculate % inhibition:
The ability of each compound to inhibit pERK signal was expressed as an IC50 value obtained by plotting the inhibition values for each data point of a dilution series and fitting the obtained curves using a log(agonist) versus response—variable slope (four parameters) function using GraphPadPrism (V7.0) or Dotmatics Screening Ultra platform.
When present, paradoxical pERK induction is inferred from the negative % inhibition values observed in the pERK IC50 curves of a compound.
Background: Bead proximity is the source of the signal in Alpha formats.

For the next experiment, the system named is Lovo cells. Description: Proliferation inhibition, CellTiter-Glo, Lovo. Particulars: Table D-2, Lovo (KRAS-G13D), 3 days, read-out: Prolif. (proliferation EC50). As for the experimental part:
as §1
(§2) CellTiter-Glo® viability analysis was conducted on cells plated in 100 μL of complete RPMI-1640 growth medium in 96-well flat-bottomed white opaque plates (Greiner or Croning) at a density indicated in Table E (for each CCL, number of cells plated per well of a 96-well plate to perform the CellTiter-Glo® cell viability assay). The cell density in cells/cm^2 would correspond to cell number divided by the area of one well of a 96-well plate (0.32 cm^2). […]
(§3) After 3 days of incubation, the growth media were removed by aspiration and 60 μL of diluted CellTiter-Glo® reagent (10 μL CellTiter-Glo® reagent+50 μL of PBS) was added to each well. […] Luminescence signals were then acquired on a Synergy Neo2 plate reader (Biotek).
(§4) The effect of each compound dilution on the proliferation of cancer cell lines was expressed in % inhibition and calculated as follows. […]
(§5) The ability of each compound to inhibit proliferation was expressed as a EC50 value obtained by plotting the effect values for each data point of a dilution series and fitting the obtained curves using a log(agonist) versus response—variable slope (four parameters) function using GraphPadPrism (V7.0) or Dotmatics Screening Ultra platform.
In general terms: Cellular ATP, detected with luciferase, serves as a proxy for viable cell number.

Another experiment deals with Calu6 cells. The experiment is described as follows: Proliferation inhibition, CellTiter-Glo, Calu-6. The note with it: Table D-2, Calu6 (KRAS Q61K), 3 days, read-out: Prolif. (proliferation EC50). As for the experimental part:
as §1, §2, §3, §4, §5

A further experiment relates to NCI-H2122 cells. The experiment is described as follows: Proliferation inhibition, CellTiter-Glo, NCI-H2122. Particulars: Table D-2, NCI-H2122 (KRAS-G12C), 3 days, read-out: Prolif. (proliferation EC50). As for the experimental part:
as §1, §2, §3, §4, §5

The subject of a further experiment is Mewo cells. Description: Proliferation inhibition, CellTiter-Glo, Mewo. Particulars: Table D-2, Mewo (NF1 LOF), 3 days, read-out: Prolif. (proliferation EC50). The procedure: as §1, §2, §3, §4, §5

The term IC50 denotes the concentration that gives 50% inhibition. For the compound `Cc1ccc2c(Nc3cccc(Cl)c3F)nccc2c1NC(=O)c1csc2c(N)ncnc12` [Belvarafenib, reference compound], the IC50 with pERK, NCI-H358 cells (Homo sapiens) fell in the range of 30 to 300 nM. For the same compound, the “pERK value in parentheses, % inhibition (Ymin)” value (“pERK value … % inhibition (Ymin)” for short) in the experiment with pERK, NCI-H358 cells is “(−122) %”. Besides, the EC50 in the experiment with Lovo cells (Homo sapiens, 72 h) is under 300 nM; in the experiment with Calu6 cells (Homo sapiens, Calu-6, 72 h) it was under 300 nM; with NCI-H2122 cells (Homo sapiens, 72 h), 300 to 3000 nM; in the experiment with Mewo cells (Homo sapiens, 72 h) it was 300 to 3000 nM.

`Cc1c(F)cccc1S(=O)(=O)Nc1ccc(F)c(Nc2ncnc3sc(-n4cc(C(=O)N5C6CCC5CN(C)C6)c5ccccc54)nc23)c1F` [Example 44] registered an IC50 in the experiment with pERK, NCI-H358 cells of 30 to 300 nM. Moreover, the “pERK value … % inhibition (Ymin)” value with pERK, NCI-H358 cells was “(1) %”. The EC50 with Lovo cells, with Calu6 cells, with NCI-H2122 cells and in the experiment with Mewo cells was under 300 nM throughout.

The compound `N#CC1(c2cccc3c2ncn3-c2nc3c(Nc4c(F)ccc(NS(=O)(=O)c5cccc(Cl)c5Cl)c4F)ncnc3s2)CC1` [Example 122] came in with an IC50 in the experiment with pERK, NCI-H358 cells of 30 to 300 nM. For the same compound, the “pERK value … % inhibition (Ymin)” value in the experiment with pERK, NCI-H358 cells is “(−3) %”. Also, the EC50 with Lovo cells is under 300 nM; in the experiment with Calu6 cells it was under 300 nM; with NCI-H2122 cells, 300 to 3000 nM; in the experiment with Mewo cells, under 300 nM.
